# The source made the active and inactive calls. No cut-off for these calls is given here.
# Target: T1, Sphingosine 1-phosphate receptor 1 (Homo sapiens, UniProt P21453)
# Assay: Agonist activity at S1P1 receptor expressed in CHO cells after 60 mins by [35S]-GTPgammaS binding assay
# Format: functional, cell-based
# Details: not given
# T1 sequence (P21453 whole entry): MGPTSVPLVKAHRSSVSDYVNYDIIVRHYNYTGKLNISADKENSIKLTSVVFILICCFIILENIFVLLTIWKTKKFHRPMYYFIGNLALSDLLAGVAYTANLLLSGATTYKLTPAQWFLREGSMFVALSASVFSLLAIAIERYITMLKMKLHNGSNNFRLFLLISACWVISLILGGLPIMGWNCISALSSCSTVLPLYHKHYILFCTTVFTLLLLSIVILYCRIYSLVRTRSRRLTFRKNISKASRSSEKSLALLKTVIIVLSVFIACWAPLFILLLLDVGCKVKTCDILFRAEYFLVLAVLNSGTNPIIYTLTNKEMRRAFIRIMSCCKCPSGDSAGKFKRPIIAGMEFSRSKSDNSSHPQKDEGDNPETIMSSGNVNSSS
row,EC50 [µM],Compound
1,> 20,CN(c1ccccc1)c1cc(C(=O)Nc2ccc(O)cc2)ncn1
2,0.006,CNS(=O)(=O)c1ccc(NC(=O)c2cc(N(CC3CC3)C3CCCCC3)ncn2)c(C)c1
3,0.0016,Cc1cc(S(N)(=O)=O)ccc1NC(=O)c1cc(N(CC2CC2)C2CCCCC2)ncn1
4,> 20,O=C(Nc1ccc(F)cc1F)c1cc(NC2CCCCC2)ncn1
5,> 20,CC(=O)Nc1ccc(NC(=O)c2cc(NC3CCCCC3)ncn2)cc1
6,> 20,O=C(Nc1ccc(CO)cc1)c1cc(NC2CCCCC2)ncn1
7,7.3,CN(c1cc(C(=O)Nc2ccc3[nH]nnc3c2)ncn1)C1CCCCC1
8,> 20,Cc1cc(O)ccc1NC(=O)c1cc(NC(C)(C)C)ncn1
9,0.405,CCN(c1cc(C(=O)Nc2ccc(O)cc2C)ncn1)C1CCCCC1
10,> 20,COc1ccc(NC(=O)c2cc(NC3CCCCC3)ncn2)cc1
11,0.375,CCCN(CCC)c1cc(C(=O)Nc2ccc(O)cc2)ncn1
12,> 20,Cc1cc(O)ccc1NC(=O)c1cc(NC2CC2)ncn1
13,12.1,O=C(Nc1ccc2[nH]ccc2c1)c1cc(NC2CCCCC2)ncn1
14,0.003,Cc1cc(CN2CC(C(=O)O)C2)ccc1NC(=O)c1cc(N(CC2CC2)C2CCCCC2)ncn1

# Target: Sphingosine 1-phosphate receptor 3 (Homo sapiens, UniProt Q99500)
# Sequence (Q99500 whole entry): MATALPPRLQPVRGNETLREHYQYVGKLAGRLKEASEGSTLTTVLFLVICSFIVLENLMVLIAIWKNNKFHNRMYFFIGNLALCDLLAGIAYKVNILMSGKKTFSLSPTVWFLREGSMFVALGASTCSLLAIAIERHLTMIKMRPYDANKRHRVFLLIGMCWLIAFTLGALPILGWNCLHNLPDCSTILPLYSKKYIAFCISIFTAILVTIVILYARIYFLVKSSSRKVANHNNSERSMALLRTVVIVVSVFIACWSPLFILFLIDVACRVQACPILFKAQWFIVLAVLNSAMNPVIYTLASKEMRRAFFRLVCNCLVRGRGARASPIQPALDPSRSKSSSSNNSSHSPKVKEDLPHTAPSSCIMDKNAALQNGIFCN
# Assay: Agonist activity at S1P3 receptor expressed in CHO cells after 60 mins by [35S]-GTPgammaS binding assay
# Format: functional, cell-based
# Details: not given
row,EC50 [µM],Compound
1,> 30,Cc1cc(S(N)(=O)=O)ccc1NC(=O)c1cc(NC2CCCCC2)ncn1
2,1.09,O=C(O)CCNCc1ccc(NC(=O)c2cc(N(CC3CC3)C3CCCCC3)ncn2)cc1
3,> 30,Cc1cc(S(N)(=O)=O)ccc1NC(=O)c1cc(N(CC2CC2)C2CCCCC2)ncn1
4,> 30,O=C(Nc1ccc(O)cc1)c1cc(NC2CCCCC2)ncn1
5,> 30,Cc1cc(O)ccc1NC(=O)c1cc(N(CC2CC2)C2CCCCC2)ncn1
6,> 30,Cc1cc(O)ccc1NC(=O)c1cc(NC2CCCCC2)ncn1
7,0.236,Cc1cc(CN2CC(C(=O)O)C2)ccc1NC(=O)c1cc(N(CC2CC2)C2CCCCC2)ncn1

# System: not listed separately
# Assay: Solubility in PBS by nephelometry
# Format: physicochemical
# Details: not given
row,solubility kinetic [mg/mL],Compound
1,0.005,Cc1cc2[nH]ncc2cc1NC(=O)c1cc(N(CC2CC2)C2CCCCC2)ncn1
2,0.005,Cc1cc(S(N)(=O)=O)ccc1NC(=O)c1cc(NC2CCCCC2)ncn1
3,> 0.045,O=C(O)CCNCc1ccc(NC(=O)c2cc(N(CC3CC3)C3CCCCC3)ncn2)cc1
4,0.001,Cc1cc(S(N)(=O)=O)ccc1NC(=O)c1cc(N(CC2CC2)C2CCCCC2)ncn1
5,> 0.051,Cc1cc(S(=O)(=O)NCCC(=O)O)ccc1NC(=O)c1cc(N(CC2CC2)C2CCCCC2)ncn1
6,0.008,Cc1cc(O)ccc1NC(=O)c1cc(N(CC2CC2)C2CCCCC2)ncn1
7,0.011,CCCN(CC1CC1)c1cc(C(=O)Nc2ccc3[nH]ncc3c2)ncn1
8,0.016,CCCN(CCC)c1cc(C(=O)Nc2ccc(O)cc2)ncn1
9,> 0.032,Cc1cc(O)ccc1NC(=O)c1cc(NC2CCCCC2)ncn1
10,0.022,Cc1cc(CN2CC(C(=O)O)C2)ccc1NC(=O)c1cc(N(CC2CC2)C2CCCCC2)ncn1

# System: not listed separately
# Assay: Lipophilicity, log P of the compound
# Format: physicochemical
# Details: octanol/water
row,logP,Compound
1,6.1,Cc1cc2[nH]ncc2cc1NC(=O)c1cc(N(CC2CC2)C2CCCCC2)ncn1
2,3.6,Cc1cc(S(N)(=O)=O)ccc1NC(=O)c1cc(NC2CCCCC2)ncn1
3,5.7,Cc1cc(S(N)(=O)=O)ccc1NC(=O)c1cc(N(CC2CC2)C2CCCCC2)ncn1
4,7.4,Cc1cc(O)ccc1NC(=O)c1cc(N(CC2CC2)C2CCCCC2)ncn1
5,4.6,CCCN(CC1CC1)c1cc(C(=O)Nc2ccc3[nH]ncc3c2)ncn1
6,4.1,Cc1cc(O)ccc1NC(=O)c1cc(NC2CCCCC2)ncn1

# System: not listed separately
# Assay: Intrinsic clearance in human liver microsomes at 3 uM by LC/MS-MS analysis
# Format: ADME, Microsome
# Details: not given
row,microsomal CLint at 3 µM [µL/min/mg],Compound
1,< 10,Cc1cc2[nH]ncc2cc1NC(=O)c1cc(N(CC2CC2)C2CCCCC2)ncn1
2,43,Cc1cc(S(N)(=O)=O)ccc1NC(=O)c1cc(NC2CCCCC2)ncn1
3,< 10,O=C(O)CCNCc1ccc(NC(=O)c2cc(N(CC3CC3)C3CCCCC3)ncn2)cc1
4,130,Cc1cc(S(N)(=O)=O)ccc1NC(=O)c1cc(N(CC2CC2)C2CCCCC2)ncn1
5,25,Cc1cc(S(=O)(=O)NCCC(=O)O)ccc1NC(=O)c1cc(N(CC2CC2)C2CCCCC2)ncn1
6,22,Cc1cc(O)ccc1NC(=O)c1cc(N(CC2CC2)C2CCCCC2)ncn1
7,17,CCCN(CC1CC1)c1cc(C(=O)Nc2ccc3[nH]ncc3c2)ncn1
8,4,CCCN(CCC)c1cc(C(=O)Nc2ccc(O)cc2)ncn1
9,2,Cc1cc(O)ccc1NC(=O)c1cc(NC2CCCCC2)ncn1
10,< 10,Cc1cc(CN2CC(C(=O)O)C2)ccc1NC(=O)c1cc(N(CC2CC2)C2CCCCC2)ncn1

# System: Mus musculus
# Assay: Reduction of lymphopenia in mouse assessed as effect on erythrocytes at 30 mg/kg, po after 4 hrs
# Format: functional, organism-based
# Set-up: dose 30 mg/kg
# Details: not given
row,Compound,Activity
1,CCCN(CC1CC1)c1cc(C(=O)Nc2ccc3[nH]ncc3c2)ncn1,inactive

# System: not listed separately
# Assay: Apparent permeability across human Caco-2 cells by LC/MS-MS analysis
# Format: ADME, cell-based
# Details: not given
row,Papp [nm/s],Compound
1,1,Cc1cc2[nH]ncc2cc1NC(=O)c1cc(N(CC2CC2)C2CCCCC2)ncn1
2,125,Cc1cc(S(N)(=O)=O)ccc1NC(=O)c1cc(NC2CCCCC2)ncn1
3,8,O=C(O)CCNCc1ccc(NC(=O)c2cc(N(CC3CC3)C3CCCCC3)ncn2)cc1
4,20,Cc1cc(S(=O)(=O)NCCC(=O)O)ccc1NC(=O)c1cc(N(CC2CC2)C2CCCCC2)ncn1
5,85,CCCN(CC1CC1)c1cc(C(=O)Nc2ccc3[nH]ncc3c2)ncn1
6,214,CCCN(CCC)c1cc(C(=O)Nc2ccc(O)cc2)ncn1
7,218,Cc1cc(O)ccc1NC(=O)c1cc(NC2CCCCC2)ncn1
8,24,Cc1cc(CN2CC(C(=O)O)C2)ccc1NC(=O)c1cc(N(CC2CC2)C2CCCCC2)ncn1

# Target: Sphingosine 1-phosphate receptor 5 (Homo sapiens, UniProt Q9H228)
# Sequence (Q9H228 whole entry): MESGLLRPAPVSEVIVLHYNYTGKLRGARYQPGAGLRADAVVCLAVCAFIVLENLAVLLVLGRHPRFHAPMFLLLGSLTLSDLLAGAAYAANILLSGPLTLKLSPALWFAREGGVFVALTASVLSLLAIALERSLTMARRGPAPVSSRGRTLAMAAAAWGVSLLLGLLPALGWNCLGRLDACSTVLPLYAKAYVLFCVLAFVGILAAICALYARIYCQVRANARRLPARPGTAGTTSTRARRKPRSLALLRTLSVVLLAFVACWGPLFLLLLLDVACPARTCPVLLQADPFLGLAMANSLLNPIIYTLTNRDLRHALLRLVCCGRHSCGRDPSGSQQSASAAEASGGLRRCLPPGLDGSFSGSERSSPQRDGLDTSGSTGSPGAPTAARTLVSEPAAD
# Assay: Agonist activity at S1P5 receptor expressed in CHO cells after 60 mins by [35S]-GTPgammaS binding assay
# Format: functional, cell-based
# Details: not given
row,EC50 [µM],Compound
1,0.0063,O=C(O)CCNCc1ccc(NC(=O)c2cc(N(CC3CC3)C3CCCCC3)ncn2)cc1
2,0.096,Cc1cc(S(N)(=O)=O)ccc1NC(=O)c1cc(N(CC2CC2)C2CCCCC2)ncn1
3,0.114,Cc1cc(S(=O)(=O)NCCC(=O)O)ccc1NC(=O)c1cc(N(CC2CC2)C2CCCCC2)ncn1
4,0.191,Cc1cc(O)ccc1NC(=O)c1cc(N(CC2CC2)C2CCCCC2)ncn1
5,0.142,CCCN(CC1CC1)c1cc(C(=O)Nc2ccc3[nH]ncc3c2)ncn1
6,0.258,Cc1cc(O)ccc1NC(=O)c1cc(NC2CCCCC2)ncn1
7,0.0006,Cc1cc(CN2CC(C(=O)O)C2)ccc1NC(=O)c1cc(N(CC2CC2)C2CCCCC2)ncn1

# Target: T1, Sphingosine 1-phosphate receptor 1
# Assay: Agonist activity at S1P1 receptor expressed in human U20S cells assessed as receptor internalization by green fluorescent protein reporter gene assay
# Format: functional, cell-based, U2OS
# Details: not given
row,EC50 [µM],Compound
1,0.012,CCCN(CC1CC1)c1cc(C(=O)Nc2ccc3[nH]ncc3c2)ncn1
2,0.003,Cc1cc(CN2CC(C(=O)O)C2)ccc1NC(=O)c1cc(N(CC2CC2)C2CCCCC2)ncn1

# System: not listed separately
# Assay: Intrinsic clearance in rat liver microsomes at 3 uM by LC/MS-MS analysis
# Format: ADME, Microsome
# Details: not given
row,microsomal CLint at 3 µM [µL/min/mg],Compound
1,26,Cc1cc2[nH]ncc2cc1NC(=O)c1cc(N(CC2CC2)C2CCCCC2)ncn1
2,15,Cc1cc(S(N)(=O)=O)ccc1NC(=O)c1cc(NC2CCCCC2)ncn1
3,< 10,O=C(O)CCNCc1ccc(NC(=O)c2cc(N(CC3CC3)C3CCCCC3)ncn2)cc1
4,14,Cc1cc(S(N)(=O)=O)ccc1NC(=O)c1cc(N(CC2CC2)C2CCCCC2)ncn1
5,25,Cc1cc(S(=O)(=O)NCCC(=O)O)ccc1NC(=O)c1cc(N(CC2CC2)C2CCCCC2)ncn1
6,52,Cc1cc(O)ccc1NC(=O)c1cc(N(CC2CC2)C2CCCCC2)ncn1
7,57,CCCN(CC1CC1)c1cc(C(=O)Nc2ccc3[nH]ncc3c2)ncn1
8,7,CCCN(CCC)c1cc(C(=O)Nc2ccc(O)cc2)ncn1
9,18,Cc1cc(O)ccc1NC(=O)c1cc(NC2CCCCC2)ncn1
10,< 10,Cc1cc(CN2CC(C(=O)O)C2)ccc1NC(=O)c1cc(N(CC2CC2)C2CCCCC2)ncn1

# System: Mus musculus
# Assay: Reduction of lymphopenia in mouse assessed as effect on platelets at 30 mg/kg, po after 4 hrs
# Format: functional, organism-based
# Set-up: dose 30 mg/kg
# Details: not given
row,Compound,Activity
1,CCCN(CC1CC1)c1cc(C(=O)Nc2ccc3[nH]ncc3c2)ncn1,inactive

# System: not listed separately
# Assay: Clearance in mouse
# Format: ADME, organism-based
# Details: in vivo
row,clearance [L/h/kg],Compound
1,0.3,NS(=O)(=O)c1ccc(NC(=O)c2cc(NC3CCCCC3)ncn2)cc1
2,4.85,Cc1cc(O)ccc1NC(=O)c1cc(NC2CCCCC2)ncn1

# System: not listed separately
# Assay: Lipophilicity, log D at pH 7.4
# Format: physicochemical
# Details: buffer
row,logD,Compound
1,> 2.7,Cc1cc(CN2CC(C(=O)O)C2)ccc1NC(=O)c1cc(N(CC2CC2)C2CCCCC2)ncn1

# System: Mus musculus
# Assay: Reduction of S1P1-mediated lymphopenia in mouse assessed as blood lymphocyte depletion at 30 mg/kg, po after 4 hrs
# Format: functional
# Set-up: scale not given: the % may be the effect or the level left
# Details: not given
row,Compound,Activity [%]
1,CCCN(CC1CC1)c1cc(C(=O)Nc2ccc3[nH]ncc3c2)ncn1,72

# From ChEMBL document CHEMBL1154985, “Discovery of a novel series of potent S1P1 agonists” (Bioorg Med Chem Lett, 2010)
